Data from publication PMC8979682, “Synthesis, Antioxidant, and Antidiabetic Activities of Ketone Derivatives of Succinimide” (Evidence-based Complementary and Alternative Medicine : eCAM, 2022).
In brackets after ≈: the same amount, converted by molar mass.

Legend:
α-glucosidase = assay: in vitro α-glucosidase inhibition; assay type: biochemical
Method: For in vitro α-glucosidase activity, samples were prepared by adding glucopyranoside to phosphate buffer solvent, and different concentrations of the synthesized compounds (31.25, 62.5, 125, 250, and 500 µg/ml), respectively, were added to this solution and then the enzyme glucosidase in distilled water (0.5 µg/ml) was also added to the above mixture. The reaction mixture thus prepared was subjected to incubation at 37°C for 20 minutes. The reaction was halted by adding HCl after incubation of the mixture. The intensity of the color was determined at 540 nm by spectrophotometer, and the formula given below was used for the determination of percent inhibition:(2) percent inhibition=absorbancecontrol−absorbancesample/absorbancecontrol×100.

α-amylase = assay: in vitro α-amylase inhibition; assay type: biochemical
Method: The starch solution was added, following incubation of the mixture, and the reaction mixture thus prepared was kept in water bath at 100°C for some time. Microplate reader measured the intensity of the color at 656 nm. Following formula was used to determine percentage inhibition:(3) percent inhibition=absorbancecontrol−absorbancesample/absorbancecontrol×100.

DPPH scavenging activity = assay type: biochemical
Method: The antioxidant assay of the synthesized compounds was conducted following the previously reported method. A freshly prepared DPPH solution (50 μL of 1.0 × 10^−3 M) was added in methyl alcohol. Methanol was used as a control in this experiment. The prepared mixture was subjected to incubation at 25°C for 30 min. A decrease in the DPPH free radical concentration was calculated using a spectrophotometer at a wavelength of 517 nm. After incubation ascorbic acid was used as a positive control. The antioxidant activity was determined as a percent (%) of inhibition using the formula given:(1) percent inhibition=absorbancecontrol−absorbancesample/absorbancecontrol×100.

ABTS scavenging activity = assay type: biochemical
Method: For the determination of the antioxidant activity of the synthesized compounds, the previously reported method for ABTS scavenging activity was used with slight modification. The stock solution of 2.4 mM of potassium per sulfate solution and 7 mM ABTS solution was prepared by mixing them in equal volumes for 16 h. The stock solution thus prepared was diluted using methyl alcohol to give absorption of 0.7 ± 0.02 units when studied at the wavelength of 734 nm using a spectrophotometer. Fresh ABTS solution was prepared for each ABTS scavenging assay. About 150 μL of the ABTS working solution was added to 50 μL of synthesized compounds and kept in darkness for 10 min. […] Methanol was used as blank, and standard ascorbic acid was run at the same time. The absorbance was calculated utilizing a microplate reader at 734 nm.

mice = assay: oral glucose tolerance test (OGTT); assay type: in vivo; details: glucose 2 g/kg orally
Method: To perform OGTT mice fasted overnight were used including both control and treated mice. Glucose was administered orally at the dose of 2 g/kg against glibenclamide as standard drug. After administration of glucose, blood glucose level was calculated at time intervals of 0, 30, 60, and 120 min for assessment of the impact of exogenously given D-glucose on treated mice. OGTT was carried out 5 days before the completion of the study.
To perform OGTT, mice fasted overnight were used including both control and treated mice. Glucose was administered orally at the dose of 2 g/kg against glibenclamide as a standard drug. After administration of glucose, blood glucose level was calculated at time intervals of 0, 30, 60, and 120 min for assessment of the impact of exogenously given D-glucose on treated mice.

[1] = tested on: diabetic mice (by alloxan); assay: antidiabetic activity in diabetic mice (by alloxan); assay type: in vivo
Method: Alloxan was used for the induction of diabetes mellitus according to reported procedure. Recently prepared Alloxan (ALX) was injected intraperitoneally to animals, fasting for 16 h, at a single dose of (150 mg/kg). […] Only diabetic animals, having random blood glucose level more than 200 mg/dl, were selected for studies. All the experimental procedure were approved from the ethical committee department of pharmacy, University of Swabi via letter No; UOS-06/2021.
A total of 30 animals were used to determine the hypoglycemic effect of the synthesized derivatives of succinimide. The experimental animals were segregated in six groups […], having five (5) animals in each group. Group I was designated as normal group and was given normal saline I/P only. Group II was given Tween 80, and Group III was given standard drug (glibenclamide) after the induction of diabetes. Group IV, Group V, and Group VI were given the various doses of synthesized compounds, respectively. […]

C[C@H]1O[C@H](O[C@H]2[C@H](O)[C@@H](O)[C@@H](O[C@H]3[C@H](O)[C@@H](O)C(O)O[C@@H]3CO)O[C@@H]2CO)[C@H](O)[C@@H](O)[C@@H]1N[C@H]1C=C(CO)[C@@H](O)[C@H](O)[C@H]1O (stereo partly drawn) [Acarbose, reference compound]
% inhibitions (α-glucosidase) (α-glucosidase; 31.25 µg/ml): 67.90 ± 0.45%
% inhibitions (α-glucosidase) (α-glucosidase; 62.50 µg/ml): 73.00 ± 0.30%
% inhibitions (α-glucosidase) (α-glucosidase; 125 µg/ml): 80.90 ± 0.60%
% inhibitions (α-glucosidase) (α-glucosidase; 250 µg/ml): 86.45 ± 0.90%
% inhibitions (α-glucosidase) (α-glucosidase; 500 µg/ml): 92.23 ± 0.22%
% inhibitions (α-amylase) (α-amylase; 31.25 µg/ml): 63.62 ± 0.58%
% inhibitions (α-amylase) (α-amylase; 62.50 µg/ml): 69.42 ± 1.55%
% inhibitions (α-amylase) (α-amylase; 125 µg/ml): 76.20 ± 0.49%
% inhibitions (α-amylase) (α-amylase; 250 µg/ml): 82.47 ± 0.71%
% inhibitions (α-amylase) (α-amylase; 500 µg/ml): 87.75 ± 0.42%

O=C1O[C@H]([C@@H](O)CO)C(O)=C1O [Ascorbic acid, reference compound]
IC50 (DPPH) (DPPH scavenging activity): 7.10 µg/mL (≈ 40.3 µM)
(%) DPPH inhibitions (DPPH scavenging activity; 31.25 µg/ml): 68.42 ± 0.43%
(%) DPPH inhibitions (DPPH scavenging activity; 62.50 µg/ml): 73.22 ± 1.28%
(%) DPPH inhibitions (DPPH scavenging activity; 125 µg/ml): 79.52 ± 0.66%
(%) DPPH inhibitions (DPPH scavenging activity; 250 µg/ml): 84.56 ± 0.45%
(%) DPPH inhibitions (DPPH scavenging activity; 500 µg/ml): 90.65 ± 1.32%
IC50 (ABTS) (ABTS scavenging activity): 6.84 µg/mL (≈ 38.8 µM)
(%) ABTS inhibitions (ABTS scavenging activity; 31.25 µg/ml): 63.89 ± 0.20%
(%) ABTS inhibitions (ABTS scavenging activity; 62.50 µg/ml): 75.45 ± 0.90%
(%) ABTS inhibitions (ABTS scavenging activity; 125 µg/ml): 77.61 ± 0.43%
(%) ABTS inhibitions (ABTS scavenging activity; 250 µg/ml): 82.40 ± 0.20%
(%) ABTS inhibitions (ABTS scavenging activity; 500 µg/ml): 87.08 ± 0.47%

O=C1CCCCC1C1CC(=O)N(c2ccccc2)C1=O (stereo not drawn) [BW1, (2-Oxocyclohexyl)-1-Phenylpyrrolidine-2,5-Dione]
OGTT blood glucose, 0 minutes (mice): 165.8 mg/dL
OGTT blood glucose, 30 minutes (mice): 194.4 mg/dL
OGTT blood glucose, 60 minutes (mice): 211.8 mg/dL
OGTT blood glucose, 120 minutes (mice): 160.3 mg/dL
IC50 (α-glucosidase) (α-glucosidase): 10.49 µg/mL (≈ 38.7 µM)
% inhibitions (α-glucosidase) (α-glucosidase; 31.25 µg/ml): 65.80 ± 0.90^ns %
% inhibitions (α-glucosidase) (α-glucosidase; 62.50 µg/ml): 70.40 ± 0.20^ns %
% inhibitions (α-glucosidase) (α-glucosidase; 125 µg/ml): 76.58 ± 0.63^ns %
% inhibitions (α-glucosidase) (α-glucosidase; 250 µg/ml): 83.45 ± 0.90^ns %
% inhibitions (α-glucosidase) (α-glucosidase; 500 µg/ml): 89.08 ± 1.04^ns %
Change in body weight ([1]; dose 31.25 μg/kg): +2.3 Gm
Blood glucose level, 0 day ([1]; dose 31.25 μg/kg): 418 mg/dL
Blood glucose level, 4th day ([1]; dose 31.25 μg/kg): 408 mg/dL
Blood glucose level, 7th day ([1]; dose 31.25 μg/kg): 399 mg/dL
Blood glucose level, 10th day ([1]; dose 31.25 μg/kg): 382 mg/dL
Blood glucose level, 15th day ([1]; dose 31.25 μg/kg): 375 mg/dL
Change in body weight ([1]; dose 62.5 μg/kg): +4.3 Gm
Decrease in blood glucose after 15 days ([1]; dose 62.5 μg/kg): 34 mg/dL
Blood glucose level, 0 day ([1]; dose 62.5 μg/kg): 380 mg/dL
Blood glucose level, 4th day ([1]; dose 62.5 μg/kg): 371 mg/dL
Blood glucose level, 7th day ([1]; dose 62.5 μg/kg): 365 mg/dL
Blood glucose level, 10th day ([1]; dose 62.5 μg/kg): 351 mg/dL
Blood glucose level, 15th day ([1]; dose 62.5 μg/kg): 346 mg/dL
Change in body weight ([1]; dose 125 μg/kg): +4.1 Gm
Decrease in blood glucose after 15 days ([1]; dose 125 μg/kg): 49 mg/dL
Blood glucose level, 0 day ([1]; dose 125 μg/kg): 443 mg/dL
Blood glucose level, 4th day ([1]; dose 125 μg/kg): 431 mg/dL
Blood glucose level, 7th day ([1]; dose 125 μg/kg): 413 mg/dL
Blood glucose level, 10th day ([1]; dose 125 μg/kg): 401 mg/dL
Blood glucose level, 15th day ([1]; dose 125 μg/kg): 394 mg/dL
Change in body weight ([1]; dose 250 μg/kg): +5.7 Gm
Decrease in blood glucose after 15 days ([1]; dose 250 μg/kg): 207 mg/dL
Blood glucose level, 0 day ([1]; dose 250 μg/kg): 421 mg/dL
Blood glucose level, 4th day ([1]; dose 250 μg/kg): 397 mg/dL
Blood glucose level, 7th day ([1]; dose 250 μg/kg): 345 mg/dL
Blood glucose level, 10th day ([1]; dose 250 μg/kg): 219 mg/dL
Blood glucose level, 15th day ([1]; dose 250 μg/kg): 214 mg/dL
Change in body weight ([1]; dose 500 μg/kg): +7.1 Gm
Decrease in blood glucose after 15 days ([1]; dose 500 μg/kg): 121 mg/dL
Blood glucose level, 0 day ([1]; dose 500 μg/kg): 412 mg/dL
Blood glucose level, 4th day ([1]; dose 500 μg/kg): 388 mg/dL
Blood glucose level, 7th day ([1]; dose 500 μg/kg): 372 mg/dL
Blood glucose level, 10th day ([1]; dose 500 μg/kg): 312 mg/dL
Blood glucose level, 15th day ([1]; dose 500 μg/kg): 291 mg/dL
IC50 (DPPH) (DPPH scavenging activity): 10.84 µg/mL (≈ 40 µM)
(%) DPPH inhibitions (DPPH scavenging activity; 31.25 µg/ml): 62.03 ± 0.77^∗∗∗ %
(%) DPPH inhibitions (DPPH scavenging activity; 250 µg/ml): 77.23 ± 0.96^∗∗∗ %
(%) DPPH inhibitions (DPPH scavenging activity; 500 µg/ml): 85.83 ± 0.47^∗∗ %
IC50 (α-amylase) (α-amylase): 13.90 µg/mL (≈ 51.2 µM)
% inhibitions (α-amylase) (α-amylase; 31.25 µg/ml): 57.40 ± 0.40^∗∗∗ %
% inhibitions (α-amylase) (α-amylase; 62.50 µg/ml): 65.08 ± 0.66^∗∗∗ %
% inhibitions (α-amylase) (α-amylase; 125 µg/ml): 71.78 ± 0.44^∗∗∗ %
% inhibitions (α-amylase) (α-amylase; 250 µg/ml): 75.32 ± 0.40^∗∗∗ %
% inhibitions (α-amylase) (α-amylase; 500 µg/ml): 81.60 ± 0.00^∗∗∗ %
IC50 (ABTS) (ABTS scavenging activity): 9.40 µg/mL (≈ 34.6 µM)
(%) ABTS inhibitions (ABTS scavenging activity; 31.25 µg/ml): 55.67 ± 0.32^∗∗∗ %
(%) ABTS inhibitions (ABTS scavenging activity; 62.50 µg/ml): 66.16 ± 0.16^∗∗∗ %
(%) ABTS inhibitions (ABTS scavenging activity; 125 µg/ml): 70.62 ± 0.25^∗∗∗ %
(%) ABTS inhibitions (ABTS scavenging activity; 250 µg/ml): 73.36 ± 0.84^∗∗∗ %
(%) ABTS inhibitions (ABTS scavenging activity; 500 µg/ml): 78.35 ± 0.23^∗∗∗ %

COc1ccc(Cl)cc1C(=O)NCCc1ccc(S(=O)(=O)NC(=O)NC2CCCCC2)cc1 [Glibenclamide, reference compound]
OGTT blood glucose, 0 minutes (mice): 151.5 mg/dL
OGTT blood glucose, 30 minutes (mice): 176.7 mg/dL
OGTT blood glucose, 60 minutes (mice): 214.3 mg/dL
OGTT blood glucose, 120 minutes (mice): 140.5 mg/dL
Change in body weight ([1]; dose 0.5 (μg/kg)): +10.3 Gm
Decrease in blood glucose after 15 days ([1]; dose 0.5 (μg/kg)): 275 mg/dL
Blood glucose level, 0 day ([1]; dose 0.5 (μg/kg)): 473 mg/dL
Blood glucose level, 4th day ([1]; dose 0.5 (μg/kg)): 303 mg/dL
Blood glucose level, 7th day ([1]; dose 0.5 (μg/kg)): 257 mg/dL
Blood glucose level, 10th day ([1]; dose 0.5 (μg/kg)): 212 mg/dL
Blood glucose level, 15th day ([1]; dose 0.5 (μg/kg)): 198 mg/dL
